What all share (type): cell-based
Assay [1] relates to A2780wt cells. Nature of the assay: ATP luminescence assay, A2780wt. To be noted: w/o BGs, 25 µM, 24 h. The source says:
As a second potential mode of cell death, ICD has been investigated. Thus, two hallmarks of ICD, namely release of adenosine triphosphate (ATP) and calreticulin translocation to the plasma membrane have been analyzed in detail. Given that some platinum complexes, including the clinically used drug oxaliplatin [27], as well as BGs, are known inducers of ICD, we investigated the potential of BGs loaded with platinum(II)‐NHC complexes to trigger this process. […] Untreated cells (without compound and without BGs) were tested as negative controls.
The ATP assay was performed by employing the commercially available ATPlite Luminescence Assay System 96‐well (revvity, Massachusetts, USA). In brief, A2780wt and A2780cis cells, respectively, were seeded at a density of 8 × 10^3 cells per well into an opaque‐walled 96‐well plate with solid bottoms. […] After incubation, 50 µL of the provided mammalian cell lysis solution was added and incubated for further 5 min on an orbital shaker at 700 rpm. Then, 50 µL of a provided substrate solution was added and again incubated for 5 min on an orbital shaker at 700 rpm. The plate was allowed to dark adapt for 10 min and then the luminescence was measured. Analysis was performed on the BioTek Synergy H1.

Assay [2] deals with A2780wt cells. Put plainly: Cellular platinum accumulation (HR CS AAS). To be noted: free complex, 25 µM, 24 h. As to the method:
Stock solutions of the platinum complexes in DMF were freshly prepared and the stocks for the loaded compounds were freshly thawed. […] Cell pellets were prepared by removing the medium, washing twice with PBS, and detaching the cells with accutase (GE Healthcare, Chicago, IL, USA). Subsequently, cells were pelleted by centrifugation (4°C, 380g, 3 min). Each pellet was twice washed with PBS and then stored at −20°C until further analyses.
Cellular accumulation was quantified by measuring the total platinum content using HR CS AAS. […] The resulting lysates were analyzed using AAS at the wavelength λ = 265.9450 nm with a high resolution continuous source (HR CS) spectrometer (contrAA 700; Analytik Jena, Jena, Germany). The ASpect CS software (version 2.3.1.0; Analytik Jena, Jena, Germany) was used to handle the spectrometer. The graphite furnace (GF) sub‐technique was used for this. In the latter, atomization takes place electrothermally in pyrolytically coated graphite tubes bearing an integrated platform (Analytik Jena, Jena, Germany). The GF program is outlined in Supporting Information S2: Table S8. The samples stored in polystyrene vials (0.5 mL; Gesellschaft für Analysentechnik, Salzwedel, Germany) were injected onto this platform employing an MPE 60 autosampler (Analytik Jena, Jena, Germany). As the purge and the protective gas served argon (Alphagaz 1, 99.999%, Air Liquide, Düsseldorf, Germany). The mean integrated absorbance of three injections was adduced during all measurements. […] As the degree of cellular accumulation is indicated as amount of compound (pmol) in the cell lysate relative to its protein mass (mg), the protein content of each sample was determined. Therefore, the method described by Bradford was used. […] Each 20 µL of either albumin standards or the cell lysates were pipetted into a 96‐well plate (Sarstedt, Nürmbrecht, Germany), followed by adding 200 µL of Bradford's reagent (Roti‐Nanoquant, Carl Roth, Karlsruhe, Germany; diluted 1:5 with ultrapure water). After incubating (5 min, rt), the absorbance (λ = 595 nm) was read with a microplate reader (Tecan Infinite M 1000 Pro, Männedorf, Switzerland). All calibration standards and lysates were measured in duplicates.

A further assay deals with A2780cis cells. Put plainly: MTT assay, A2780cis cells. To be noted: for Resistance factor RF = IC50(A2780cis)/IC50(A2780wt): 72 h; for IC50: 72 h exposure. As to the method:
Carboplatin, a second‐generation platinum drug commonly used as part of standard first‐line chemotherapy for ovarian carcinoma, was examined as a reference compound due to its clinical relevance. Additionally, the nonmalignant bone marrow stromal cell line HS‐5 was included as a control to assess specificity of the complexes toward cancer cells.
Unloaded BGs (4 × 10^8 EcN or 2 × 10^8 Ec NM522, which is equivalent to the highest tested BG concentration) were tested as controls.
The exponentially growing cells were seeded at a density of 8 × 10^3 cells/well (A2780wt/cis) or 1 × 10^4 cells/well (HS‐5), respectively, into clear flat‐bottom 96‐well plates in triplicates. […] After another 72 h of incubation, the cellular metabolic activity was measured as an indicator of cell viability employing an MTT assay. Hereby, 20 µL of a 5 mg/mL MTT solution was added to each well, respectively. After 3 h of incubation, the medium was discarded, and the formazan crystals formed were dissolved in DMSO for 15 min with gentle shaking. […] The OD at 620 nm was subtracted from the OD at 595 nm. The OD of the medium was subtracted to exclude the unspecific staining caused by FCS‐containing medium. Cells treated with vehicle control (0.1% DMF) only were set at 100% metabolic activity. The IC50 values were calculated with Prism 8.0 (GraphPad Software Inc., Boston, MA, USA) using nonlinear regression. Significance was evaluated via a one sample t‐test performed with Prism 8.0.

As for `CCN1[C]([Pt]([O]C(C)=O)([O]C(C)=O)[SH](C)(C)=O)N(CC)c2ccccc21` [Compound 1, (SP‐4‐2)‐Diacetato(1,3‐diethylbenzimidazol‐2‐ylidene)(dimethylsulfoxide)platinum(II)], the ATP concentration with A2780wt cells [1] worked out at 0.20 ± 0.04 µM. Further, in the assay on A2780wt cells [2], the “uptake into A2780wt cells (total cellular platinum content)” value (“uptake into A2780wt cells” below) worked out at 1.1 pmol/µg. Further, in the assay with A2780cis cells, the “Resistance factor RF = IC50(A2780cis)/IC50(A2780wt)” value was 1.2 and the IC50 was 36.5 ± 2.85 µM.
As to `CCN1[C]([Pt]([O]C(=O)C(Cl)Cl)([O]C(=O)C(Cl)Cl)[SH](C)(C)=O)N(CC)c2ccccc21` [Compound 3, (SP‐4‐2)‐Bis(dichloroacetato)(1,3‐diethylbenzimidazol‐2‐ylidene)(dimethylsulfoxide)platinum(II)], the ATP concentration in the assay with A2780wt cells [1] turned out to be 0.15 ± 0.08 µM. For the same compound, the “uptake into A2780wt cells” value in the assay on A2780wt cells [2] worked out at 1.17 pmol/µg. The compound further registered an IC50 with A2780cis cells of 83.1 ± 4.79 µM.
For “(SP‐4‐2)‐Bis(dichloroacetato)bis(1,3‐diethylbenzimidazol‐2‐ylidene)platinum(II) [Compound 4]”, the ATP concentration in the assay on A2780wt cells [1] is 0.32 ± 0.13 µM. The “uptake into A2780wt cells” value in the assay with A2780wt cells [2] is 1.87 pmol/µg. In addition, in the assay with A2780cis cells, the “Resistance factor RF = IC50(A2780cis)/IC50(A2780wt)” value was 0.9 and it took 34.9 ± 1.7 µM to reach half-maximal inhibition (IC50).
For “(SP‐4‐2)‐Diacetatobis(1,3‐diethylbenzimidazol‐2‐ylidene)platinum(II) [Compound 2]”, in the assay on A2780wt cells [1], the ATP concentration amounted to 0.32 ± 0.03 µM. Moreover, the “uptake into A2780wt cells” value in the assay with A2780wt cells [2] stood at 0.82 pmol/µg. Also, in the assay with A2780cis cells, the “Resistance factor RF = IC50(A2780cis)/IC50(A2780wt)” value amounted to 1.0 and the IC50 worked out at 39.3 ± 2.8 µM.
